Reference: US10450314B2, “Pteridine derivatives as modulators of ROR gamma” (Boehringer Ingelheim International GmbH, priority 2015, dated 2019)

Columns and labels:
RORγ = molecular target: T1, RORγ (Homo sapiens, UniProt P51449); test: RORγ Reporter Gene Assay (RGA), luciferase transactivation in transiently transfected HEK 293 cells; format: cell-based; details: HEK 293 cells cotransfected with pGL4.3 luc2P/GAL4UAS and pBIND Gal4DBD hRORC LBD; 20-24 h incubation
T1 construct: expressed in transfected cells; host or cells: HEK 293 cells, transiently cotransfected with pGL4.3 luc2P/GAL4UAS/Hygro reporter
T1 sequence (P51449 269-508 limits assumed): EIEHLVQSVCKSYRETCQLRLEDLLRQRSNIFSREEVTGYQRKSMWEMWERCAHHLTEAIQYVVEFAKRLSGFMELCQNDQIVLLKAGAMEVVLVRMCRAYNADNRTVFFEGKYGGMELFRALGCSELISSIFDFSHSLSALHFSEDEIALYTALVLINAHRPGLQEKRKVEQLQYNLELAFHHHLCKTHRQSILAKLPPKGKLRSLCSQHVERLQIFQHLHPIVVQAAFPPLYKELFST
Method: Reporter Gene Assay (RGA)
A nuclear receptor transactivation assay is performed to quantitate the ability of test compounds to inhibit RORγ transactivation of a luciferase reporter. A similar assay is described in: Khan et al., Bioorganic & Medicinal Chemistry Letters 23 (2013), 532-536. The system uses transiently transfected HEK 293 cells cotransfected with two plasmids (pGL4.3, luc2P/GAL4UAS/Hygro, and pBIND, Gal4DBD hRORC LBD1-3). The positive control is co-transiently transfected with both plasmids, and the negative control contains the pGL4.3 promoter sequence. Assays are assembled in 384 well plates where transiently transfected cells and test compound at varying concentrations are incubated for 20-24 h. The next day, assays plates are taken out and equilibrated at RT for 20-30 minutes. Bright-Glo™ Luciferase Assay System is used to detect Luciferase production. After addition of Bright GLO detection reagent, the plates are incubated at RT for 20 minutes. The plates are read on an Envision plate reader to measure luminescence signal. The RLU signal is converted to POC relative to control and blank wells.
Compound Dilution Buffer:
Bright Glo Luciferase Assay System: Promega #E2620
Thaw lysis buffer provided in kit, add 100 mL lysis buffer to substrate powder.

[1] = Human liver microsome (HLM) metabolic stability assay; format: in vitro ADME; details: human liver microsomes, 1 uM compound, 37° C., 60 min; % hepatic blood flow
Method: Assessment of Metabolic Stability
The 5 time point, high-throughput human liver microsome (HLM) metabolic stability assay is designed to determine in vitro compound metabolism. Compounds are incubated with HLMs at a concentration of 1 uM, at 37° C., for a total of 60 min. The percent of compound remaining at 5, 15, 30, and 60 min is used to calculate the t1/2 (min), CLint (mL/min/kg), CLh (mL/min/kg), and % Qh. The assay is based on a 96-well format and can accommodate up to 92 compounds per plate (n=1).
Using the 96-well multi-channel head, the Biomek FX, equipped with a Peltier heating block/shaker, is programmed to accomplish the following steps: • 1. Pipette 175 uL of 1.15 mg/mL microsomes into each of the 96 conical inserts (Analytical Sales and Products, catalog number 96PL05) that fit into the plate of the Peltier heating block/shaker (the incubation plate) • 2. Add 5 uL of compounds from the assay plate to the microsomes and shake the mixture at 600 rpm at 42.1° C. for 10 min (a setting of 42.1° C. on the Peltier is required for the samples to incubate at 37° C.) • 3. After 10 min, prompt the user to add the NADPH plate to the deck and add 20 uL from the NADPH plate to the incubation plate to start the reaction • 4. Add 215 uL of 100%, cold acetonitrile containing an internal standard(s) to a 0 minute, 5 minute, 15 minute, 30 minute, and 60 minute “quench” plate • 5. At 0 min, 5 min, 15 min, 30 min, and 60 min into the incubation, aspirate 12 uL from the incubation mixture and add it to the quench solution to stop the reaction • 6. Add 185 uL HPLC grade water to each well of the 0, 5, 15, 30 and 60 minute quench plates to dilute compounds to the appropriate concentration for the mass spectrometer
After all time points are collected, the quench plates are sealed with 96-well pierceable plate mats or heat sealing foil and centrifuged at 3000 rpm for 15 min to pellet the microsomes.
The plates are analyzed using LC/MS/MS with electron spray ionization (ESI) and the previously determined MRM transitions. The LC method includes the following parameters:
Using an Excel template in Activitybase, the peak areas corresponding to 5, 15, 30 and 60 min are compared to the peak area at 0 min to calculate the percent of remaining compound using the following equation:
Percent compound remaining=(AUC at Time t min/AUC at Time 0 min)×100 where t=0, 5, 15, 30 or 60 min.
Time (min) is plotted against the natural logarithm (Ln) of the percent compound remaining to determine the slope. The slope is used to calculate t1/2 (min) using the equation, t1/2=0.693/slope.
Clint, Intrinsic Clearance

Row | Structure (SMILES) | IC50 (RORγ) [nM] | HLM (% Qh) [1] [% Qh]
1 | CC[C@@H](C)n1c(=O)c(NCc2ccc(S(=O)(=O)CC)cn2)nc2c(COC(C)=O)nc(-c3c(C)ncnc3C3CC3)nc21 [Example 46] | 1050 | 66
2 | CCS(=N)(=O)c1ccc(CNc2nc3c(C)nc(-c4c(C)ncnc4C4CC4)nc3n([C@@H](C)C(F)(F)F)c2=O)nc1 (single isomer, unassigned) [Example 102a] | 535 | <24
3 | CCS(=O)(=O)c1ccc(CNc2nc3c(C)nc(-c4c(OC)ncnc4C4CC4)nc3n(CC(C)C)c2=O)cn1 [Example 78] | 275 | <24
4 | CCS(=O)(=O)c1cnc(CNc2nc3c(C)nc(-c4c(C)ncnc4C4CC4)nc3n([C@H](C)C(F)F)c2=O)nc1 [Example 93] | 185 | <24
5 | Cc1ncnc(C2CC2)c1-c1nc(C)c2nc(NCc3cnc(S(C)(=O)=O)cn3)c(=O)n([C@@H](C)C(F)(F)F)c2n1 [Example 37] | 455 | <24
6 | CCS(=O)(=O)c1cnc(CNc2nc3c(C)nc(-c4c(C)ncnc4C4CC4)nc3n([C@@H](C)C(F)F)c2=O)nc1 [Example 94] | 205 | <24
7 | Cc1ncnc(C2CC2)c1-c1nc(C)c2nc(NCc3ccc(S(C)(=N)=O)cn3)c(=O)n([C@@H](C)C(F)(F)F)c2n1 (single isomer, unassigned) [Example 106b] | 840 | 28
8 | CC[C@H](C)n1c(=O)c(NCc2ccc(S(C)(=O)=O)cn2)nc2c(C)nc(-c3c(OC)ncnc3C3CC3)nc21 [Example 13] | 99 | <24
9 | CC[C@@H](C)n1c(=O)c(NCc2ccc(S(=N)(=O)CC)cc2)nc2c(C)nc(-c3c(OC)ncnc3C3CC3)nc21 (single isomer, unassigned) [Example 29a] | 235 | 73
10 | CCS(=N)(=O)c1ccc(CNc2nc3c(C)nc(-c4c(C)ncnc4C4CC4)nc3n([C@@H](C)C3CC3)c2=O)cc1 (single isomer, unassigned) [Example 36a] | 260 | <24
11 | CC[C@@H](C)n1c(=O)c(NCc2ccc(S(C)(=O)=O)cn2)nc2c(CF)nc(-c3c(C)ncnc3C3CC3)nc21 [Example 54] | 225 | 41

Further molecules by falling IC50 (RORγ), results first:

Row | IC50 (RORγ) [nM] | HLM (% Qh) [1] [% Qh] | Structure (SMILES)
12 | 260 | 41 | COc1ncnc(C2CC2)c1-c1nc(C)c2nc(NCc3ccc(S(C)(=N)=O)cc3)c(=O)n([C@@H](C)C(F)(F)F)c2n1 (single isomer, unassigned) [Example 99b]
13 | 255 | <24 | CCS(=O)(=O)c1ccc(CNc2nc3c(C)nc(-c4c(OC)ncnc4C4CC4)nc3n(CC(C)C)c2=O)nc1 [Example 80]
14 | 250 | 32 | CC[C@H](C)n1c(=O)c(NCc2ccc(S(C)(=N)=O)cc2)nc2c(C)nc(-c3c(OC)ncnc3C3CC3)nc21 (some centres unmarked) [Example 83]
15 | 115 | <24 | CC[C@H](C)n1c(=O)c(NCc2ccc(S(C)(=O)=O)cn2)nc2c(C)nc(-c3c(C)ncnc3C3CC3)nc21 [Example 14]
16 | 98 | 78 | CC[C@@H](C)n1c(=O)c(NCC2CCN(S(C)(=O)=O)CC2)nc2c(C)nc(-c3c(C)ncnc3C3CC3)nc21 [Example 59]
17 | 97 | 27 | CCS(=O)(=O)c1cnc(CNc2nc3c(C)nc(-c4c(OC)ncnc4C4CC4)nc3n([C@@H](C)C3CC3)c2=O)nc1 [Example 10]
18 | 80 | <24 | CC[C@H](C)n1c(=O)c(NCc2ccc(S(=O)(=O)CC)cn2)nc2c(C)nc(-c3c(C)ncnc3C3CC3)nc21 [Example 60]
19 | 65 | 35 | CCS(=O)(=O)c1ccc(CNc2nc3c(C)nc(-c4c(OC)ncnc4C4CC4)nc3n([C@@H](C)C3CC3)c2=O)nc1 [Example 71]
